Measurements from publication PMC7026418, “The kinase polypharmacology landscape of clinical PARP inhibitors” (Scientific Reports, 2020).
Like-named read-outs stand apart in the source and are kept apart here. One block for each molecule: values may come before it.

How the values were obtained:
Assay in all cases: biochemical
Set-up in all cases: DiscoveRx KINOMEscan active site-directed competition binding; percent of control kinase bound to immobilised ligand
EPHA2 = EPHA2 (Homo sapiens, UniProt P29317)
CAMK1 = CAMK1 (Homo sapiens, UniProt Q14012)
LOK = biological target: T1, LOK (Homo sapiens, UniProt O94804)
T1 construct: gene STK10

GAK = biological target: T2, GAK (Homo sapiens, UniProt O14976)
T2 sequence (O14976 1-1311): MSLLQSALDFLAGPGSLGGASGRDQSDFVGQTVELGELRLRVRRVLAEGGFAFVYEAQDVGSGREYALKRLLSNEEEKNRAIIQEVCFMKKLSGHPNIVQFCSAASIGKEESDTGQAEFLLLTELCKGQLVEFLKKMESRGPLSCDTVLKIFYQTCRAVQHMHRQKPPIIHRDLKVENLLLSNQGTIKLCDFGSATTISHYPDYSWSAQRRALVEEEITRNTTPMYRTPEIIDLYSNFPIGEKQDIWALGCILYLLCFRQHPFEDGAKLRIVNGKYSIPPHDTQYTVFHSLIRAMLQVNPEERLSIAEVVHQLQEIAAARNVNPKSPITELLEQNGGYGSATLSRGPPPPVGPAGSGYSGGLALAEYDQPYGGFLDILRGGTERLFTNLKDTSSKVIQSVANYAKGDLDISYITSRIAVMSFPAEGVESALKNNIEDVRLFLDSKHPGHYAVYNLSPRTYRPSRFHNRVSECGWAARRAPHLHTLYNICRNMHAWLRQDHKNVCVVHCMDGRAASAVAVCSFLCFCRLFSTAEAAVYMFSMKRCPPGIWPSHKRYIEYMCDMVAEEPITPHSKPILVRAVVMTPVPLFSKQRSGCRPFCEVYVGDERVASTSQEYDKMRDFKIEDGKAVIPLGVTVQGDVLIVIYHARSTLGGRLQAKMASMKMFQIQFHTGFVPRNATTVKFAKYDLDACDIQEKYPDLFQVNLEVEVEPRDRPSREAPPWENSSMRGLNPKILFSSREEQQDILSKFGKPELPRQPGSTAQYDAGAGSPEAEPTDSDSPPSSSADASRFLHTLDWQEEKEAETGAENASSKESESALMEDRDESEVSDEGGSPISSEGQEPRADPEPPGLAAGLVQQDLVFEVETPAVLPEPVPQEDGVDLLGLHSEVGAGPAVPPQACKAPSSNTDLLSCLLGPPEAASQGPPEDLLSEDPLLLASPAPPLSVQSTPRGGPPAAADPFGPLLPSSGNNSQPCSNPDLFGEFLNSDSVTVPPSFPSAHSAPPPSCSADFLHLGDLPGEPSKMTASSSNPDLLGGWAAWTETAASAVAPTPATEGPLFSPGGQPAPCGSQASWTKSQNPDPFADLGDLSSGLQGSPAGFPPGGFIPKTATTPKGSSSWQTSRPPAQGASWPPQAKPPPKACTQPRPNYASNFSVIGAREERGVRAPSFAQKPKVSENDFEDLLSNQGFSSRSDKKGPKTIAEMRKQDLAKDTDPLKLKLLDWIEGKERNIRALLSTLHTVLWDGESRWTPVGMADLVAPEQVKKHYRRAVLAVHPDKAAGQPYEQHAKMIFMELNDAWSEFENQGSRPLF

EGFR(L858R,T790M) = EGFR(L858R,T790M) (Homo sapiens, UniProt P00533, L858R/T790M)
CDKL5 = biological target: T3, CDKL5 (Homo sapiens, UniProt O76039)
T3 sequence (O76039 1-960): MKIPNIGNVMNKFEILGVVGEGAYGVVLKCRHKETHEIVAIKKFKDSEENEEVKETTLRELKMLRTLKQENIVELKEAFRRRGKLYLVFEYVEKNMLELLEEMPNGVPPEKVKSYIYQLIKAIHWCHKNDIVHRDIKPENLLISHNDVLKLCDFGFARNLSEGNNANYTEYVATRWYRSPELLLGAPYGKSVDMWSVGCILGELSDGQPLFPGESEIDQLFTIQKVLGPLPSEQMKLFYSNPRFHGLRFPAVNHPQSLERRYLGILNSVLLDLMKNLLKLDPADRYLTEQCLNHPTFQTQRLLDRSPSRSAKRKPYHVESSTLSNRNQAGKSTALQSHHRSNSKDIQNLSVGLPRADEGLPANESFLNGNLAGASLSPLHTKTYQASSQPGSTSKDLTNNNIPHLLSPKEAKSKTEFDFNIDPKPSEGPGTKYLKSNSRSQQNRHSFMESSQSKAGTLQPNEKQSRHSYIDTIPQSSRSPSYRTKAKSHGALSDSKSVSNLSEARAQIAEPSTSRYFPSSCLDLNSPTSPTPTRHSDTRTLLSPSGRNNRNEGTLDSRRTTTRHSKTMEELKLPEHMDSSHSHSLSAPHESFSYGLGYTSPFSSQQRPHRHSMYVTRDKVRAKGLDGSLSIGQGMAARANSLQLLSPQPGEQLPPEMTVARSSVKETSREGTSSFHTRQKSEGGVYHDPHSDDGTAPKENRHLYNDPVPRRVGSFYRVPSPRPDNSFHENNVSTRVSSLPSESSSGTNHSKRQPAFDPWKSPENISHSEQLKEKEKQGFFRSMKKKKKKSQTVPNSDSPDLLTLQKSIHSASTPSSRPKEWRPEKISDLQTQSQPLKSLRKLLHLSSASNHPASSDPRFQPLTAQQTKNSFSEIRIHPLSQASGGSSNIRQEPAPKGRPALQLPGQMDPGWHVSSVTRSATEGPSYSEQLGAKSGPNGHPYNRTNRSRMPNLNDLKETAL

[1] = read-out: Niraparib (MK-4827) / %Ctrl @ 10000nM
[2] = read-out: Olaparib / %Ctrl @ 10000nM
[3] = read-out: Rucaparib / %Ctrl @ 10000nM, binding competition, % of control
[4] = read-out: Talazoparib (BMN 673) / %Ctrl @ 10000nM

CAMK1, sequence (Q14012 whole entry): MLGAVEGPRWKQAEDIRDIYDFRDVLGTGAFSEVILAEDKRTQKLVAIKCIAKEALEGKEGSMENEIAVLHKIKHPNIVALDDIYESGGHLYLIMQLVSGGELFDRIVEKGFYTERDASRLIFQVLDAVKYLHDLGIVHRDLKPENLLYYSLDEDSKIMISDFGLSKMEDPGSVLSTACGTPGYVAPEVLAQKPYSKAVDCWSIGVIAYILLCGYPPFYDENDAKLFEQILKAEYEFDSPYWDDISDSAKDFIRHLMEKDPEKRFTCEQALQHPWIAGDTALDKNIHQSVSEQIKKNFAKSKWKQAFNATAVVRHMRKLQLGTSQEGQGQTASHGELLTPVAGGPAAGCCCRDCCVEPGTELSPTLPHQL
T1 sequence (O94804 whole entry): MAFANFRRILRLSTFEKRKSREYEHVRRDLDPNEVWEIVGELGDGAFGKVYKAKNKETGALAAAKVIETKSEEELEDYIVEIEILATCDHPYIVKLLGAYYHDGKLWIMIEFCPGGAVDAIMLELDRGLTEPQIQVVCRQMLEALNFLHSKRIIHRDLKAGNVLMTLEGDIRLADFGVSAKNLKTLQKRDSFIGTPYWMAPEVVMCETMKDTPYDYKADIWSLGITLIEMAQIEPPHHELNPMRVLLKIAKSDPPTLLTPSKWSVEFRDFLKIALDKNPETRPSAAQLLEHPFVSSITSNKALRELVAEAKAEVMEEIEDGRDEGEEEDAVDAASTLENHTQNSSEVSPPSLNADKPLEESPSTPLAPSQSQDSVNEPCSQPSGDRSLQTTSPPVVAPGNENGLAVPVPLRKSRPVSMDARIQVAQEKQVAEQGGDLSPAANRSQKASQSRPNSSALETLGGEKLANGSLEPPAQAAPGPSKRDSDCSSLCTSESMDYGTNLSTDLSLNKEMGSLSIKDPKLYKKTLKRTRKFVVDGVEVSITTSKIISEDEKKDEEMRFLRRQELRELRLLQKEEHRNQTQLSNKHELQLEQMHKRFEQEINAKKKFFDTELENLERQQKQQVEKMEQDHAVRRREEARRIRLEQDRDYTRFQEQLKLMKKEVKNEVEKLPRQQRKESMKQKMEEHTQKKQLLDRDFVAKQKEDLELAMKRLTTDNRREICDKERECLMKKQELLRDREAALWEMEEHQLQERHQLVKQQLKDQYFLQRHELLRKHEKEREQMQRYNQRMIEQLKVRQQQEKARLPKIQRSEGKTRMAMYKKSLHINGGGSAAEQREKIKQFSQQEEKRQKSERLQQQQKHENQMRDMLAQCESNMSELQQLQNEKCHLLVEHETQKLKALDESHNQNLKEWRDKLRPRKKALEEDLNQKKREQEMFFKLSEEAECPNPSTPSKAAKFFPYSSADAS
EPHA2, sequence (P29317 whole entry): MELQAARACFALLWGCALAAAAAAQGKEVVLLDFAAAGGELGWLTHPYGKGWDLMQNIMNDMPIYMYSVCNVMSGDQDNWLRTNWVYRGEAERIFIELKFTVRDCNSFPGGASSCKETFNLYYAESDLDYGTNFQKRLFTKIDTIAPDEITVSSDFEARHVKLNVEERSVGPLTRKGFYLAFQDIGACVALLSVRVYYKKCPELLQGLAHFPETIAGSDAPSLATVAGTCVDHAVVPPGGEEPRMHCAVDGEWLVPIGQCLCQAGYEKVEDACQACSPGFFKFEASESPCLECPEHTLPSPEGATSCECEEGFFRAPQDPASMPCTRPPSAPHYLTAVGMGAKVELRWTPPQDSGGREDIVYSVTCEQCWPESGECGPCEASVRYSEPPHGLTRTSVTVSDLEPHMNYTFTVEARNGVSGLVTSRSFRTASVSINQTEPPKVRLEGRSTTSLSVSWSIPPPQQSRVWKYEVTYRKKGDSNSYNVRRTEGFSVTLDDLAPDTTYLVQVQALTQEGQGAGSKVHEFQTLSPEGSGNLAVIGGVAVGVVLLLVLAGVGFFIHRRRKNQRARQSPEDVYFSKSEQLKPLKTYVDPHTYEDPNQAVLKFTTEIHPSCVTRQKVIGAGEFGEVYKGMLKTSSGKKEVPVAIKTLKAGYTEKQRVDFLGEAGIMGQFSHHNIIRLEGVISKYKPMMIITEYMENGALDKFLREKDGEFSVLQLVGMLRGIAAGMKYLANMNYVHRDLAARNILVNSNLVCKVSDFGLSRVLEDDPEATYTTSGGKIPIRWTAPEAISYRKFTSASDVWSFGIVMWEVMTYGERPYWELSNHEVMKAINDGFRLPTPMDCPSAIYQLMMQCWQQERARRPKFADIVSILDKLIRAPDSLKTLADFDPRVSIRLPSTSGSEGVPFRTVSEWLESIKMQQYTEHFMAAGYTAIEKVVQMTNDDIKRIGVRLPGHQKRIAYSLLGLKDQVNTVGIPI
EGFR(L858R,T790M), sequence (P00533 whole entry T790M/L858R): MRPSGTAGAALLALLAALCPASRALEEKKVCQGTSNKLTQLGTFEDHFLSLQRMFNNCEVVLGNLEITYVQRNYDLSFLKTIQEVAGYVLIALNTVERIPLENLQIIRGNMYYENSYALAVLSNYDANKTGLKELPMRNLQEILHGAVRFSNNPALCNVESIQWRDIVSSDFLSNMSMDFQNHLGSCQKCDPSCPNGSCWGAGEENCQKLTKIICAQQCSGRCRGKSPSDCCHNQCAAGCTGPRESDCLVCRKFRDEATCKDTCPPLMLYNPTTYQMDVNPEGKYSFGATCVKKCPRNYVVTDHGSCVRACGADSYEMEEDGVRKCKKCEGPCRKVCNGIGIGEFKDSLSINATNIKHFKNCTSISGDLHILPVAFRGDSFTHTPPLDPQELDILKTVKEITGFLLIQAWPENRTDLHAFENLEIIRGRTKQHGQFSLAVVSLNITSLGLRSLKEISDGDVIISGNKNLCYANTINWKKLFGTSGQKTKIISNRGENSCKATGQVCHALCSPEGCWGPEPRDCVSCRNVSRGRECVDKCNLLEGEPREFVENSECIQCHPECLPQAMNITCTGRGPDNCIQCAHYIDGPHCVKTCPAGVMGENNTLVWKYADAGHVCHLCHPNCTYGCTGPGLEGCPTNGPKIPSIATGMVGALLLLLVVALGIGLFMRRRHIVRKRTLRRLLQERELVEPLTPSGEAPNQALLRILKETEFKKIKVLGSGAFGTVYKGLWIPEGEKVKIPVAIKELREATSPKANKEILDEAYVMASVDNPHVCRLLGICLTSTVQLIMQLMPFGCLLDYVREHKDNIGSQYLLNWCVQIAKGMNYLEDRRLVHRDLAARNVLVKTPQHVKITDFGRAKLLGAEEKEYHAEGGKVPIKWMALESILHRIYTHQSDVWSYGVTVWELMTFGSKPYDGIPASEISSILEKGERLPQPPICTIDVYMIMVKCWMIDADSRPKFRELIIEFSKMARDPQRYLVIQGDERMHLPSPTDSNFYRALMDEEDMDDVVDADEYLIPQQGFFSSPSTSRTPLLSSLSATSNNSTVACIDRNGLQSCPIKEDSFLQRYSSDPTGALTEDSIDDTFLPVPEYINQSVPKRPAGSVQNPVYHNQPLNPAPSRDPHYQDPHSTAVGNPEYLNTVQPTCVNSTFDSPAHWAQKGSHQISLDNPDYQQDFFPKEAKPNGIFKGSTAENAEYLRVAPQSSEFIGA

SMILES: NC(=O)c1cccc2cn(-c3ccc([C@@H]4CCCNC4)cc3)nc12 [Niraparib]
percent of control binding at 10 µM (EPHA2; [1]): 94%
percent of control binding at 10 µM (CAMK1; [1]): 80%
percent of control binding at 10 µM (LOK; [1]): 86%
percent of control binding at 10 µM (GAK; [1]): 58%
percent of control binding at 10 µM (EGFR(L858R,T790M); [1]): 100%
percent of control binding at 10 µM (CDKL5; [1]): 86%

percent of control binding at 10 µM (EPHA2; [2]): 97%
percent of control binding at 10 µM (CAMK1; [2]): 100%
percent of control binding at 10 µM (LOK; [2]): 96%
percent of control binding at 10 µM (GAK; [2]): 100%
percent of control binding at 10 µM (EGFR(L858R,T790M); [2]): 93%
percent of control binding at 10 µM (CDKL5; [2]): 98%
SMILES: O=C(c1cc(Cc2n[nH]c(=O)c3ccccc23)ccc1F)N1CCN(C(=O)C2CC2)CC1 [Olaparib]

percent of control binding at 10 µM (EPHA2; [3]): 100%
percent of control binding at 10 µM (CAMK1; [3]): 90%
percent of control binding at 10 µM (LOK; [3]): 100%
percent of control binding at 10 µM (GAK; [3]): 35%
percent of control binding at 10 µM (EGFR(L858R,T790M); [3]): 70%
percent of control binding at 10 µM (CDKL5; [3]): 30%
SMILES: CNCc1ccc(-c2[nH]c3cc(F)cc4c3c2CCNC4=O)cc1 [Rucaparib]

percent of control binding at 10 µM (EPHA2; [4]): 100%
percent of control binding at 10 µM (CAMK1; [4]): 95%
percent of control binding at 10 µM (LOK; [4]): 100%
percent of control binding at 10 µM (GAK; [4]): 100%
percent of control binding at 10 µM (EGFR(L858R,T790M); [4]): 100%
percent of control binding at 10 µM (CDKL5; [4]): 100%
SMILES: Cn1ncnc1[C@H]1c2n[nH]c(=O)c3cc(F)cc(c23)N[C@@H]1c1ccc(F)cc1 [Talazoparib]
